In PubChem BioAssay (NCI):
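Five concentrations, 48 hours, 96-well plates. At the GI50, growth is halved. TGI denotes the concentration required for complete inhibition of growth.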

What was measured:
Assay in all cases: NCI-60 cell line screen, 48 h
[1] = test system: SF-268 CNS
[2] = test system: K-562 leukemia
[3] = test system: U251 CNS
[4] = test system: SNB-19 CNS
[5] = test system: SW-620 colon
[6] = test system: SNB-75 CNS
[7] = test system: IGROV1 ovarian
[8] = test system: MCF7 breast
[9] = test system: UACC-257 melanoma
[10] = test system: NCI-H522 lung
[11] = test system: HT29 colon
[12] = test system: SF-295 CNS
[13] = test system: OVCAR-3 ovarian
[14] = test system: HOP-92 NSCLC
[15] = test system: HOP-62 NSCLC
[16] = test system: LOX IMVI melanoma
[17] = test system: MDA-MB-231 breast
[18] = test system: MALME-3M melanoma
[19] = test system: A549 NSCLC
[20] = test system: PC-3 prostate
[21] = test system: ACHN renal
[22] = test system: RPMI-8226 leukemia
[23] = test system: MOLT-4 leukemia
[24] = test system: DU-145 prostate
[25] = test system: NCI-H23 lung
[26] = test system: NCI-H460 lung
[27] = test system: MDA-MB-435
[28] = test system: NCI-H226 lung
[29] = test system: CCRF-CEM leukemia
[30] = test system: HS 578T breast
[31] = test system: HCC-2998 colon
[32] = test system: RXF 393 renal
[33] = test system: NCI/ADR-RES ovarian
[34] = test system: M14 melanoma
[35] = test system: SR leukemia
[36] = test system: CAKI-1 renal
[37] = test system: BT-549 breast
[38] = test system: EKVX NSCLC
[39] = test system: HL-60(TB) leukemia
[40] = test system: SK-MEL-5 melanoma
[41] = test system: COLO 205 colon
[42] = test system: T-47D breast
[43] = test system: SF-539 CNS
[44] = test system: OVCAR-8 ovarian
[45] = test system: SN12C renal
[46] = test system: UACC-62 melanoma
[47] = test system: HCT-15 colon
[48] = test system: UO-31 renal
[49] = test system: 786-0 renal
[50] = test system: HCT-116 colon
[51] = test system: SK-MEL-2 melanoma
[52] = test system: OVCAR-4 ovarian
[53] = test system: TK-10 renal
[54] = test system: A498 renal
[55] = test system: OVCAR-5 ovarian
[56] = test system: SK-OV-3 ovarian
[57] = test system: SK-MEL-28 melanoma
[58] = test system: KM12 colon

## C/C(CCC(=O)O)=N/Nc1ccc([N+](=O)[O-])cc1
[1]
  GI50: 29 µM
  TGI: > 100 µM
[2]
  GI50: 0.563 µM
  TGI: > 100 µM
[3]
  GI50: > 100 µM
  TGI: > 100 µM
[4]
  GI50: > 100 µM
  TGI: > 100 µM
[5]
  GI50: 2.6 µM
  TGI: > 100 µM
[6]
  GI50: > 100 µM
  TGI: > 100 µM
[7]
  GI50: > 100 µM
  TGI: > 100 µM
[8]
  GI50: 24.4 µM
  TGI: > 100 µM
[9]
  GI50: 70.6 µM
  TGI: > 100 µM
[10]
  GI50: 0.738 µM
  TGI: > 100 µM
[11]
  GI50: > 100 µM
  TGI: > 100 µM
[12]
  GI50: 2.36 µM
  TGI: > 100 µM
[13]
  GI50: 17.4 µM
  TGI: > 100 µM
[14]
  GI50: > 100 µM
  TGI: > 100 µM
[15]
  GI50: > 100 µM
  TGI: > 100 µM
[16]
  GI50: 1.84 µM
  TGI: > 100 µM
[17]
  GI50: 7.16 µM
  TGI: > 100 µM
[18]
  GI50: 65 µM
  TGI: > 100 µM
[19]
  GI50: 4.41 µM
  TGI: > 100 µM
[20]
  GI50: 11.5 µM
  TGI: > 100 µM
[21]
  GI50: 2.19 µM
  TGI: > 100 µM
[22]
  GI50: 57.7 µM
  TGI: > 100 µM
[23]
  GI50: 4.27 µM
  TGI: > 100 µM
[24]
  GI50: > 100 µM
  TGI: > 100 µM
[25]
  GI50: > 100 µM
  TGI: > 100 µM
[26]
  GI50: 3.12 µM
  TGI: > 100 µM
[27]
  GI50: 4.37 µM
  TGI: > 100 µM
[28]
  GI50: > 100 µM
  TGI: > 100 µM
[29]
  GI50: 0.696 µM
  TGI: > 100 µM
[30]
  GI50: > 100 µM
  TGI: > 100 µM
[31]
  GI50: 5.94 µM
  TGI: > 100 µM
[32]
  GI50: > 100 µM
  TGI: > 100 µM
[33]
  GI50: 4.44 µM
  TGI: > 100 µM
[34]
  GI50: 1.53 µM
  TGI: > 100 µM
[35]
  GI50: 9.3 µM
  TGI: > 100 µM
[36]
  GI50: 3.69 µM
  TGI: > 100 µM
[37]
  GI50: 42.3 µM
  TGI: > 100 µM
[38]
  GI50: 28.5 µM
  TGI: > 100 µM
[39]
  GI50: 1.51 µM
  TGI: > 100 µM
[40]
  GI50: 10.1 µM
  TGI: > 100 µM
[41]
  GI50: 3.43 µM
  TGI: > 100 µM
[42]
  GI50: 3.66 µM
  TGI: > 100 µM
[43]
  GI50: 3.18 µM
  TGI: 14.8 µM
[44]
  GI50: 42.6 µM
  TGI: > 100 µM
[45]
  GI50: > 100 µM
  TGI: > 100 µM
[46]
  GI50: 0.492 µM
  TGI: 62.3 µM
[47]
  GI50: 3.35 µM
  TGI: > 100 µM
[48]
  GI50: 3.27 µM
  TGI: > 100 µM
[49]
  GI50: 4.34 µM
  TGI: > 100 µM
[50]
  GI50: 4.31 µM
  TGI: > 100 µM
[51]
  GI50: 66.3 µM
  TGI: > 100 µM
[52]
  GI50: > 100 µM
  TGI: > 100 µM
[53]
  GI50: > 100 µM
  TGI: > 100 µM
[54]
  GI50: > 100 µM
  TGI: > 100 µM
[55]
  GI50: > 100 µM
  TGI: > 100 µM
[56]
  GI50: > 100 µM
  TGI: > 100 µM
[57]
  GI50: > 100 µM
  TGI: > 100 µM
[58]
  GI50: 0.839 µM
  TGI: > 100 µM

## CN1CCN(Cc2ccc(NC(=O)c3cncc(C#Cc4c(N)ncc5ccc(C#N)cc45)c3)cc2C(F)(F)F)CC1
[1]
  GI50: 0.91 µM
  TGI: 1.89 µM
[2]
  GI50: 0.005 µM
  TGI: 0.266 µM
[3]
  GI50: 0.864 µM
  TGI: 1.67 µM
[4]
  GI50: 0.952 µM
  TGI: 1.79 µM
[5]
  GI50: 0.696 µM
  TGI: 1.53 µM
[6]
  GI50: 2.29 µM
  TGI: 4.54 µM
[7]
  GI50: 0.816 µM
  TGI: 1.99 µM
[8]
  GI50: 0.694 µM
  TGI: 1.59 µM
[9]
  GI50: 0.483 µM
  TGI: 1.78 µM
[10]
  GI50: 0.748 µM
  TGI: 2.01 µM
[11]
  GI50: 0.079 µM
  TGI: 1.17 µM
[12]
  GI50: 8.67 µM
  TGI: 18 µM
[13]
  GI50: 3.61 µM
  TGI: 14.3 µM
[14]
  GI50: 0.412 µM
  TGI: 6.35 µM
[15]
  GI50: 0.849 µM
  TGI: 1.92 µM
[16]
  GI50: 0.29 µM
  TGI: 1.07 µM
[17]
  GI50: 0.525 µM
  TGI: 1.23 µM
[18]
  GI50: 0.0477 µM
  TGI: 0.331 µM
[19]
  GI50: 0.867 µM
  TGI: 1.68 µM
[20]
  GI50: 0.891 µM
  TGI: 1.75 µM
[21]
  GI50: 0.717 µM
  TGI: 1.39 µM
[22]
  GI50: 1.01 µM
  TGI: 2.47 µM
[23]
  GI50: 0.801 µM
  TGI: 2.96 µM
[24]
  GI50: 0.829 µM
  TGI: 1.59 µM
[25]
  GI50: 1.02 µM
  TGI: 3.6 µM
[26]
  GI50: 0.878 µM
  TGI: 1.77 µM
[27]
  GI50: 0.333 µM
  TGI: 1.07 µM
[28]
  GI50: 0.294 µM
  TGI: 14.5 µM
[29]
  GI50: 1.04 µM
  TGI: 3.08 µM
[30]
  GI50: 0.741 µM
  TGI: 9.45 µM
[31]
  GI50: 1.72 µM
  TGI: 5.03 µM
[32]
  GI50: 1.08 µM
  TGI: 2.88 µM
[33]
  GI50: 1.11 µM
  TGI: 2.63 µM
[34]
  GI50: 0.0668 µM
  TGI: 0.729 µM
[35]
  GI50: 0.547 µM
  TGI: 2.57 µM
[36]
  GI50: 0.943 µM
  TGI: 1.93 µM
[37]
  GI50: 6.46 µM
  TGI: 14.8 µM
[38]
  GI50: 0.791 µM
  TGI: 1.57 µM
[39]
  GI50: 1.4 µM
  TGI: 50 µM
[40]
  GI50: 0.785 µM
  TGI: 1.54 µM
[41]
  GI50: 0.121 µM
  TGI: 50 µM
[42]
  GI50: 1.23 µM
  TGI: 5.85 µM
[43]
  GI50: 0.76 µM
  TGI: 3.07 µM
[44]
  GI50: 0.926 µM
  TGI: 1.87 µM
[45]
  GI50: 2.97 µM
  TGI: 7.35 µM
[46]
  GI50: 0.668 µM
  TGI: 1.42 µM
[47]
  GI50: 0.827 µM
  TGI: 1.72 µM
[48]
  GI50: 0.971 µM
  TGI: 1.73 µM
[49]
  GI50: 0.901 µM
  TGI: 1.71 µM
[50]
  GI50: 0.7 µM
  TGI: 1.44 µM
[51]
  GI50: 2.44 µM
  TGI: 9.56 µM
[52]
  GI50: 0.558 µM
  TGI: 1.37 µM
[53]
  GI50: 0.969 µM
  TGI: 1.87 µM
[54]
  GI50: 1.07 µM
  TGI: 6.35 µM
[55]
  GI50: 0.813 µM
  TGI: 1.61 µM
[56]
  GI50: 8.27 µM
  TGI: 17.5 µM
[57]
  GI50: 0.35 µM
  TGI: 1.1 µM
[58]
  GI50: 0.005 µM
  TGI: 0.791 µM
